Test results published in article PMC6327263, “Evaluation of Novel 3-Hydroxyflavone Analogues as HDAC Inhibitors against Colorectal Cancer” (Advances in Pharmacological Sciences, 2018).

Experiments:
[1] = tested on: acetyl histone H3K9; experiment: Western blotting, acetyl histone H3K9 expression; format: cell-based, human; conditions: HCT116 cells, 24 h, compared to normal control
Method: After various treatments for 24 h, cells were lysed, and protein quantification of the lysates was estimated using the BCA™ kit (Thermo Fisher Scientific Inc., Waltham, MA, USA). Proteins samples (30 µg) were resolved on a 10% SDS-PAGE and transferred onto a PVDF membrane and blocked with 5% nonfat milk in TBST (tris-buffered saline with Tween-20) buffer for 1 h followed by washing in TBST buffer. The membrane was then probed with primary antibodies (GAPDH, HDAC8, p21^Waf1/Cip1, and acetyl-histone H3[Ac-Lys^9]) and incubated overnight at 4°C. The membrane was washed with TBST buffer and incubated with horseradish peroxidase-conjugated secondary antibody for 1 h at room temperature. Signal was captured using SuperSignal™ West Pico Plus chemiluminescent substrate (Thermo Fischer Scientific Inc., Waltham, MA, USA) on gel documentation system (G : BOX Chemi XRQ, Syngene). The protein band densities were estimated using the software ImageJ (version 1.46r, NIH, Bethesda, MD, USA).

[2] = tested on: Wistar rats; format: in vivo; conditions: 2000 mg/kg p.o., limit test, 14 days observation
Method: Animal care and handling were carried out according to the guidelines of the Committee for the Purpose of Control and Supervision of Experiments on Animals (CPCSEA), after seeking the approval of the research proposal by institutional animal ethics committee (IAEC) (IAEC/KMC/23/2015). Male Wistar rats inbred at the central animal research facility (CARF), Manipal academy of higher education (MAHE), was used in the present study. […] The animals were housed in sterile polypropylene cages containing sterile paddy husk and were provided with 12 h light and dark cycles.
The safe dose of the promising two analogues (QMJ-2 and QMJ-5) and quercetin were evaluated using Organization for Economic Cooperation and Development (OECD), 425 guidelines. Limit test was performed using 2000 mg/kg dose.

SMILES	expression of acetylated histone H3K9 [1]	acute toxicity, tolerability [2]	mortality [2]
Cc1ccc(-c2oc3cc(C)ccc3c(=O)c2O)cc1 [QMJ-5, 3-Hydroxy-7-methyl-2-(4-methylphenyl)-4H-1-benzopyran-4-one]	significant increase		
O=c1c(O)c(-c2ccc(O)c(O)c2)oc2cc(O)cc(O)c12 [Quercetin, quercetin, reference compound]		safe and well tolerated	no mortality
